According to patent US20040010001A1, “Methods and compositions for modulating cell proliferation and cell death” (priority 1999, published 2004):
Read-outs that look alike come from different tables or passages of the source.

Key:
Assay type in all cases: cell-based
[1] = system: Human prostate PC3 tumor cells; assay: Drug treatment and extracellular bFGF (ELISA), LDH release, cell number; conditions: for Extracellular LDH, % of control / Extracellular bFGF, % of control / Extracellular concentration bFGF / bFGF:LDH ratio: 72 hours
Method: The experimental conditions are described briefly below. […] The remaining cell number at the end of treatment was counted using a Coulter counter. The extracellular bFGF concentration was measured using ELISA. The release of lactate dehydrogenase (LDH) into the extracellular culture medium is indicative of cell death and gives a measure of the release of cellular content into the culture medium. If the increase in extracellular bFGF level is due to the release of bFGF upon cell death and lysis, the increase in bFGF will be accompanied by an increase in LDH in the same extent. This would result in an higher bFGF level and a constant bFGF-to-LDH ratio. On the other hand, an increase in extracellular bFGF due to an increase in bFGF production and release of bFGF from cells by processes other than cell lysis will result in an higher bFGF level and an higher bFGF-to-LDH ratio.

[2] = system: rat primary tumors, histocultures; assay: Drug effect in histocultures of rat primary tumors (inhibition of 3H-thymidine incorporation); conditions: Histocultures, Primary, 96 hours, read-out: Concentration producing 50% inhibition
Human prostate PC3 = assay: FGF-induced resistance, inhibition of BrdU incorporation; conditions: Homo sapiens, read-out: Drug concentration needed to produce 50% inhibition
Method: (§1) Prior to drug treatment, cells were incubated for 4 days with tumor CM or with r-aFGF ad/or r-bFGF-containing medium, supplemented with 1% FBS (final protein concentration adjusted to 2 mg/ml). The medium was renewed every other day.
(§2) The antiproliferative drug effect in histocultures was measured as inhibition of ^3H-thymidine incorporation quantified by autoradiography (Yen, W. C. et al. (1996) Pharm. Res. 13:1305-1312) and, for monolayers, as inhibition of BrdU incorporation or as reduction of total proteins by the sulforhodamine B assay (Au, J. L.-S. et al. (1998) Cancer Res. 58:2141-2148). For the latter, the two assays yielded qualitatively similar results. Cell kill induced by 96-hour drug treatment was monitored by the release of LDH into the culture medium. LDH activity was monitored by the conversion of tetrazolium to formazan (detected at 490 nm).
(§3) The experimental conditions are described briefly below. Cells were pretreated with human recombinant r-aFGF and/or r-bFGF for 96 hours and then with drugs for 96 hours. For the studies on cells derived from the human prostate, lung, pharynx, colon and breast cancer cells, the drug effect was determined by the inhibition of BrdU incorporation. For the study on the human leukemic cells, the drug effect was measured by the MTT assay, which measures the number of metabolically active cells (Alley, M. C. et al (1988) Cancer Res 48:589-601).

Human colon HT-29 = assay: as above; conditions: read-out: Drug concentration needed to produce 50% inhibition
Method: as §1, §2, §3

[3] = system: Human breast BC19 (subline of MCF7 transfected with mdr1); assay: as above; conditions: read-out: Drug concentration needed to produce 50% inhibition
Method: as §1, §2, §3

Human breast MCF7 = assay: as above; conditions: read-out: Drug concentration needed to produce 50% inhibition
Method: as §1, §2, §3

Rat prostate MAT-LyLu = assay: as above; conditions: read-out: Drug concentration needed to produce 50% inhibition
Method: as §1, §2, §3

Human pharynx FaDu = assay: as above; conditions: read-out: Drug concentration needed to produce 50% inhibition
Method: as §1, §2, §3

Human lung A459 = assay: as above; conditions: read-out: Drug concentration needed to produce 50% inhibition
Method: as §1, §2, §3

[4] = system: rat lymph node metastasis cells, monolayers; assay: Drug effect in monolayers of rat lymph node metastasis cells (inhibition of bromodeoxyuridine incorporation); conditions: 96 h, read-out: Concentration producing 50% inhibition
[5] = 96 h, r-aFGF + r-bFGF 0.04 ± 1 ng/ml
[6] = 96 h, r-aFGF + r-bFGF 0.08 ± 1 ng/ml
[7] = 96 h, r-aFGF + r-bFGF 0.32 ± 1 ng/ml
[8] = 96 h, r-aFGF + r-bFGF 0.64 ± 1 ng/ml
[9] = 96 h, r-aFGF + r-bFGF 1 ± 1 ng/ml

O=c1[nH]cc(F)c(=O)[nH]1 [5-Fluorouracil]
Remaining cell number at 72 hours (% of control) ([1]; drug concentration 2000 NM): 88%
Remaining cell number at 72 hours × 10^6 ([1]; drug concentration 2000 NM): 2.2 × 10^6
Extracellular LDH, % of control ([1]; drug concentration 2000 NM): 121 % of control
Extracellular bFGF, % of control ([1]; drug concentration 2000 NM): 139 % of control
Extracellular concentration bFGF ([1]; drug concentration 2000 NM): 8.37 pg/mL
bFGF:LDH ratio ([1]; drug concentration 2000 NM): 1.15
Remaining cell number at 72 hours (% of control) ([1]; drug concentration 6000 NM): 56%
Remaining cell number at 72 hours × 10^6 ([1]; drug concentration 6000 NM): 1.4 × 10^6
Extracellular LDH, % of control ([1]; drug concentration 6000 NM): 158 % of control
Extracellular bFGF, % of control ([1]; drug concentration 6000 NM): 189 % of control
Extracellular concentration bFGF ([1]; drug concentration 6000 NM): 11.35 pg/mL
bFGF:LDH ratio ([1]; drug concentration 6000 NM): 1.20
Remaining cell number at 72 hours (% of control) ([1]; drug concentration 20000 NM): 24%
Remaining cell number at 72 hours × 10^6 ([1]; drug concentration 20000 NM): 0.6 × 10^6
Extracellular LDH, % of control ([1]; drug concentration 20000 NM): 202 % of control
Extracellular bFGF, % of control ([1]; drug concentration 20000 NM): 296 % of control
Extracellular concentration bFGF ([1]; drug concentration 20000 NM): 17.8 pg/mL
bFGF:LDH ratio ([1]; drug concentration 20000 NM): 1.46
IC50 [2]: 33 ± 12 µM
IC50 (Human prostate PC3; [5]): 0.761 µM
IC50 (Human prostate PC3; [6]): 1.15 µM
IC50 (Human prostate PC3; [7]): 2.54 µM
IC50 (Human prostate PC3; [8]): 3.77 µM
IC50 (Human prostate PC3; [9]): 5.74 µM
IC50 (Human prostate PC3; 96 h, r-aFGF + r-bFGF): 1.64 µM
IC50 (Human prostate PC3; r-aFGF 0 ng/ml): 0.81 µM
IC50 (Human prostate PC3; r-aFGF 1 ng/ml): 0.815 µM
IC50 (Human prostate PC3; r-aFGF 10 ng/ml): 0.695 µM
IC50 (Human prostate PC3; r-aFGF 50 ng/ml): 0.732 µM
IC50 (Human prostate PC3; r-bFGF 0 ng/ml): 0.741 µM
IC50 (Human prostate PC3; r-bFGF 1 ng/ml): 0.846 µM
IC50 (Human prostate PC3; r-bFGF 10 ng/ml): 2.41 µM
IC50 (Human prostate PC3; r-bFGF 50 ng/ml): 4.3 µM
IC50 (Human colon HT-29; HT-29, 96 h, r-aFGF + r-bFGF 0 ng/ml): 1.64 µM
IC50 (Human colon HT-29; HT-29, 96 h, r-aFGF + r-bFGF 0.04 ± 1 ng/ml): 1.76 µM
IC50 (Human colon HT-29; HT-29, 96 h, r-aFGF + r-bFGF 0.08 ± 1 ng/ml): 1.55 µM
IC50 (Human colon HT-29; HT-29, 96 h, r-aFGF + r-bFGF 0.16 ± 1 ng/ml): 1.61 µM
IC50 (Human colon HT-29; HT-29, 96 h, r-aFGF + r-bFGF 0.32 ± 1 ng/ml): 2.77 µM
IC50 (Human colon HT-29; HT-29, 96 h, r-aFGF + r-bFGF 0.64 ± 1 ng/ml): 5.21 µM
IC50 (Human colon HT-29; HT-29, 96 h, r-aFGF + r-bFGF 1 ± 1 ng/ml): 7.07 µM
IC50 (Human colon HT-29; HT-29, r-aFGF 0 ng/ml): 1.64 µM
IC50 (Human colon HT-29; HT-29, r-aFGF 1 ng/ml): 1.62 µM
IC50 (Human colon HT-29; HT-29, r-aFGF 10 ng/ml): 1.58 µM
IC50 (Human colon HT-29; HT-29, r-aFGF 50 ng/ml): 1.63 µM
IC50 (Human colon HT-29; HT-29, r-bFGF 0 ng/ml): 2.09 µM
IC50 (Human colon HT-29; HT-29, r-bFGF 1 ng/ml): 2.36 µM
IC50 (Human colon HT-29; HT-29, r-bFGF 10 ng/ml): 2.23 µM
IC50 (Human colon HT-29; HT-29, r-bFGF 50 ng/ml): 2.25 µM
IC50 ([3]; r-bFGF 0 ng/ml): 0.975 µM
IC50 ([3]; r-bFGF 0.01 ng/ml): 1.07 µM
IC50 ([3]; r-bFGF 0.1 ng/ml): 1.37 µM
IC50 ([3]; r-bFGF 1 ng/ml): 1.51 µM
IC50 (Human breast MCF7; MCF7, r-bFGF 0 ng/ml): 0.991 µM
IC50 (Human breast MCF7; MCF7, r-bFGF 0.01 ng/ml): 1.03 µM
IC50 (Human breast MCF7; MCF7, r-bFGF 0.1 ng/ml): 1.37 µM
IC50 (Human breast MCF7; MCF7, r-bFGF 1 ng/ml): 1.51 µM
IC50 (Rat prostate MAT-LyLu; r-bFGF 0 ng/ml): 0.746 µM
IC50 (Rat prostate MAT-LyLu; r-bFGF 1 ng/ml): 1.05 µM
IC50 (Rat prostate MAT-LyLu; r-bFGF 10 ng/ml): 1.99 µM
IC50 (Rat prostate MAT-LyLu; r-bFGF 50 ng/ml): 3.25 µM
IC50 (Human pharynx FaDu; 96 h, r-aFGF + r-bFGF 0 ng/ml): 5.76 µM
IC50 (Human pharynx FaDu; [5]): 5.44 µM
IC50 (Human pharynx FaDu; [6]): 5.44 µM
IC50 (Human pharynx FaDu; 96 h, r-aFGF + r-bFGF 0.16 ± 1 ng/ml): 5.47 µM
IC50 (Human pharynx FaDu; [7]): 5.56 µM
IC50 (Human pharynx FaDu; [8]): 9.69 µM
IC50 (Human pharynx FaDu; [9]): 15.2 µM
IC50 (Human pharynx FaDu; r-aFGF 0 ng/ml): 5.75 µM
IC50 (Human pharynx FaDu; r-aFGF 1 ng/ml): 5.5 µM
IC50 (Human pharynx FaDu; r-aFGF 10 ng/ml): 5.45 µM
IC50 (Human pharynx FaDu; r-aFGF 50 ng/ml): 5.25 µM
IC50 (Human pharynx FaDu; r-bFGF 0 ng/ml): 4.34 µM
IC50 (Human pharynx FaDu; r-bFGF 1 ng/ml): 4.56 µM
IC50 (Human pharynx FaDu; r-bFGF 10 ng/ml): 4.79 µM
IC50 (Human pharynx FaDu; r-bFGF 50 ng/ml): 4.25 µM
IC50 (Human lung A459; A459, 96 h, r-aFGF + r-bFGF 0 ng/ml): 0.862 µM
IC50 (Human lung A459; A459, 96 h, r-aFGF + r-bFGF 0.04 ± 1 ng/ml): 0.908 µM
IC50 (Human lung A459; A459, 96 h, r-aFGF + r-bFGF 0.08 ± 1 ng/ml): 0.995 µM
IC50 (Human lung A459; A459, 96 h, r-aFGF + r-bFGF 0.16 ± 1 ng/ml): 1.01 µM
IC50 (Human lung A459; A459, 96 h, r-aFGF + r-bFGF 0.32 ± 1 ng/ml): 1.62 µM
IC50 (Human lung A459; A459, 96 h, r-aFGF + r-bFGF 0.64 ± 1 ng/ml): 2.09 µM
IC50 (Human lung A459; A459, 96 h, r-aFGF + r-bFGF 1 ± 1 ng/ml): 3.63 µM
IC50 (Human lung A459; A459, r-bFGF 0 ng/ml): 0.87 µM
IC50 (Human lung A459; A459, r-bFGF 1 ng/ml): 1.01 µM
IC50 (Human lung A459; A459, r-bFGF 10 ng/ml): 1.38 µM
IC50 (Human lung A459; A459, r-bFGF 50 ng/ml): 1.71 µM
IC50 ([4]; Monolayers (passage 0)): 1.9 ± 0.06 µM
IC50 ([4]; Monolayers (passage 1)): 1.29 ± 0.06 µM
IC50 ([4]; Monolayers (passage 2)): 1.09 ± 0.04 µM
IC50 ([4]; Monolayers (passage 3)): 0.83 ± 0.1 µM
